Results: patent publication US20160137630A1, “INDUCTION OF GATA2 BY HDAC1 AND HDAC2 INHIBITORS” (ACETYLON PHARMACEUTICALS, INC., priority 2014, published 2016)

What was measured:
HbE mRNA = HbE mRNA levels in peripheral blood of rats; type: in vivo; conditions: rat, 10 and 30 mg/kg; FIG. 27A-B
Experimental: I. A. Rats were dosed once daily by oral gavage for 6 consecutive days at 0 mg/kg, 10 mg/kg, or 30 mg/kg per dose (See FIG. 25A). Dosing days are indicated by a down arrow (FIG. 25A). Peripheral blood was drawn on the indicated days and analyzed for drug level in plasma (PK), complete blood counts (CBC), or isolation of total ribonucleic acid (RNA). […] For each individual rat, HbE mRNA was expressed relative to HbB mRNA and then normalized to their predose level (time=day 0). Points are the average of n=4 animals with error bars showing the standard deviation (FIG. 27A).

[1] = tested on: erythroblasts derived from CD34+ cells isolated from human bone marrow; experiment: QRT-PCR time course of mRNA expression during erythroid differentiation; type: cell-based
Source text: Gata2 mRNA was induced while Gata1 mRNA was unaffected. The culture system was as described by Sankaran et al., “Human fetal hemoglobin expression is regulated by the developmental stage-specific repressor BCL11A”, Science, vol. 322(5909), pp. 1839-42 (2008).
Gata2 mRNA was induced while Gata1 mRNA was unaffected. The culture system as described by Bradner et al., PNAS, vol. 107(28), pp. 12617-22 (2010). […]
The cells were then differentiated by exposure to either vehicle or Compound 001. RNA was measured at days 0, 2, 3, 4, 5, 6, and 8.
Gata1 increased and Gata2 decreased in control cells during the 5 days differentiation period, a result consistent with the known expression pattern of these genes during erythropoiesis (FIG. 1C).

[2] = tested on: K562 erythroleukemia cells; experiment: Gata2 mRNA in K562 cells; type: cell-based; conditions: 3 days, FIG. 3
Gata2 mRNA = experiment: induction of Gata2 mRNA in erythroid progenitors by HDAC1,2 inhibitors; type: cell-based, human; conditions: erythroid progenitors differentiated 3 days with compound; FIG. 2A-C
Source text: Human bone marrow derived CD34+ cells were expanded for 7 days as described by Sankaran et al., Science, vol. 322(5909), pp. 1839-42 (2008). Cells were then differentiated, in the presence of the indicated compound (i.e., Compounds 001, Compound Y, Compound 2005, Compound 2004, Compound 2003), for 3 days in media supporting erythropoiesis (Hu et al., “Isolation and functional characterization of human erythroblasts at distinct stages: implications for understanding of normal and disordered erythropoiesis in vivo”, Blood, vol. 121(16), pp. 3246-53 ([…])). FIG. 2A, FIG. 2B, and FIG. 2C each represents an experimental series performed on different days and with different donor cells.

[3] = tested on: CD34+ bone marrow cells undergoing erythroid differentiation; experiment: Affymetrix GeneChip mRNA expression profiling; type: cell-based, human
Source text: The knockdown results were derived from an independent analysis of publically available raw data (Bradner et al., “Chemical genetic strategy identifies histone deacetylase 1 (HDAC1) and HDAC2 as therapeutic targets in sickle cell disease”, PNAS, vol. 107(28), pp. 12617-22 (2010)) and detection of mRNA by Affymetrix GeneChip.
Among the genes differentially regulated by both pharmacological inhibition and genetic ablation of HDAC1/2 were Bcl11a and Sox6, known HbG repressors, and Gata2, a potential HbG activator.
Then, the cells were differentiated by exposure to either vehicle (control) or Compound 001. FACS was performed at day 5. […] GlyA.
The mechanism through which HDAC1/2 inhibition induces HbG by performing gene expression profiling was interrogated. Because HDAC inhibition prevented cells from fully upregulating GlyA (FIG. 19E), RNA was isolated at day 5 of differentiation, a time point prior to the observed differentiation block.
Next, using the GeneChip data, a candidate gene approach was taken to determine which HbG modulators were changing as a result of both chemical and genetic HDAC1/2 inhibition (FIG. 1A). […] In contrast, other HbG repressors, such as Myb and Klf1 were unaffected. Expression changes were not observed for other genes involved in HbG regulation, including KDM1A (LSD1), NR2C1 (TR2) and NR2C2 (TR4), NR2F2 (COUP-TFII) and nuclear factor Y subunits, and proteins known to associate with Bcl11a12 (data not shown).

Gata2 regulatory regions = experiment: Gata2 ChIP-seq at the Gata2 locus; type: cell-based; conditions: −1.8 kb region
Source text: As above, differentiation profiles of compound treated cells were highly similar to control cells (FIG. 23A). It was observed that Gata2 occupancy at the Gata2 locus is tightly correlated between K562 and primary erythroid progenitors. In both cases, binding was limited to the +9.5, −1.8, −2.8, and −3.9 kb regulatory regions (data not shown).

[4] = dosing schedule study in rats; type: in vivo, rat; conditions: 30 mg/kg
Experimental: IV. Rats were dosed with 30 mg/kg once daily by oral gavage according to the above schedule. […] Group 1=daily dosing, Group 2=5 on 2 off, Group 3=3 on 4 off, Group 4=every other day, Group 5=control. N=4 animals per group (FIG. 28A).
Data points are the average of N=4 animals. HbE2 mRNA level was determined by quantitative real time PCR and expressed relative to HbB mRNA control. Data for each animal was then normalized to the expression level prior to the onset of dosing (average of day −3 and day 0 values).
Data points are the average of N=4 animals.

[5] = tested on: human bone marrow mononuclear cells; experiment: colony formation assays; conditions: 1 μM
[6] = 1 μM for 6 days, culture conditions supporting late erythroblasts, FIG. 1C
[7] = 1 μM for 8 days, culture conditions supporting early erythroblasts, FIG. 1B
[8] = Compound 001 1 μM vs vehicle, day 5
[9] = every other day dosing schedule

Nc1ccc(-c2cccs2)cc1NC(=O)c1ccc2nc(N3CCNCC3)ccc2c1 [Compound 001, N-(2-amino-5-(thiophen-2-yl)phenyl)-2-(piperazin-1-yl)quinoline-6-carboxamide]
HbE mRNA relative to HbB mRNA, normalized to predose (HbE mRNA): dose-dependent increase | Gata1 mRNA [1, 6]: unaffected | Gata2 mRNA [1, 6]: induced | Gata1 mRNA [1, 7]: unaffected | Gata2 mRNA [1, 7]: induced | Klf1 mRNA ([1]; QPCR, FIG. 1N): unaffected | decrease in Bcl11a mRNA ([1]; QRT-PCR time course): 2 fold | decrease in Sox6 mRNA ([1]; QRT-PCR time course): 10 fold | increase in Gata2 mRNA ([1]; QRT-PCR time course): 8 fold | Gata2 increase relative to control cells ([1]; day 2): 2 fold | Gata2 increase relative to control cells ([1]; day 5): 5 fold | Gata2 mRNA [2]: dose dependent response | Gata2 mRNA (Gata2 mRNA): induction of Gata2 mRNA | candidate gene expression ratio Bcl11a [3, 8]: 0.8 | candidate gene expression ratio Gata1 [3, 8]: 1.0 | candidate gene expression ratio Gata2 [3, 8]: 2.8 | candidate gene expression ratio KLF1 [3, 8]: 0.9 | candidate gene expression ratio Myb [3, 8]: 1.1 | candidate gene expression ratio Sox6 [3, 8]: 0.4 | Bcl11a down-regulation ([3]; GeneChip, FIG. 1A): 1.3 fold | Gata2 up-regulation ([3]; GeneChip, FIG. 1A): 2.8 fold | Klf1 expression change ([3]; GeneChip, FIG. 1A): unaffected | Myb expression change ([3]; GeneChip, FIG. 1A): unaffected | Sox6 down-regulation ([3]; GeneChip, FIG. 1A): 2.5 fold | maximum increase in Gata2 binding (peak height) (Gata2 regulatory regions): 3 fold | mode of HbF expression (HbE2 mRNA pattern) ([4]; 3 on 4 off dosing schedule): heterocellular mode of HbF expression | myelosuppression (white blood cell counts) ([4]; 3 on 4 off dosing schedule): greater myelo suppression | mode of HbF expression (HbE2 mRNA pattern) [4, 9]: pancellular mode of HbF expression | myelosuppression (white blood cell counts) [4, 9]: less myelosuppression | number of CFU-E colonies [5]: no effect | number of CFU-GM colonies [5]: no effect | number of CFU-MK colonies [5]: significantly suppressed | size and number of BFU-E colonies [5]: no effect
